Experimental data published in US20260151410A1, “Tetrahydronaphthyridine Derivatives, Medicine Prepared Therefrom, and Applications Thereof in Preventing and Treating Adhesion-related Diseases” (SCINNOHUB PHARMACEUTICAL CO., LTD, priority 2022, published 2026).
Where two headings read alike, the source gives them in different places.

Columns and labels:
[1] = system: total proteases in the homogenate of the jejunal segment of the small intestine of rats; experiment: Inhibition of total proteases in rat small intestine (jejunum) homogenate, fluorescent protease activity kit; type: biochemical; settings: ΔRFU within 30 minutes
Excerpt: The purpose is to determine the inhibitory activity of the compounds of the present disclosure on total proteases in the homogenate of the jejunal segment of the small intestine of rats.
• a) Preparation of rat intestinal homogenate and protein quantification • i. Tissue sampling: The experimental animals were anesthetized and bled to death. The small intestine was folded in half from the ileocecal junction to the duodenum at the lower end of the stomach, and the jejunum in the middle with a size of about 4 cm was taken; after washing with a 0.9% sodium chloride solution, it was quickly frozen in liquid nitrogen and then transferred to −80° C. for storage; • ii. […] The total protein of the homogenate was quantified using the BCA protein concentration assay kit according to the instructions. • b) Inhibitory activity test of compound • i. […]
• v. […] The fluorescence signals at FI=Ex 485/Em 520 nm were detected continuously within 30 minutes (once every 5 minutes) using a kinetic mode. • c) Data analysis
The difference between fluorescence signals within 30 minutes was calculated and recorded as ΔRFU. […]
The inhibitory effect of the compounds of the present disclosure on the total proteases in the rat small intestine homogenate was determined by the above test, and the measured IC50 values were as follows.

MMP9 = MMP9 (Homo sapiens, UniProt P14780); experiment: Inhibition of recombinant human protease MMP9, fluorescence assay; type: biochemical
Procedure: (§1) The purpose is to determine the inhibitory activity of the compounds of the present disclosure on recombinant human proteases Trypsin, MMP9, and TACE.
(§2) • Trypsin: 100 mM Tris-HCl, 75 mM NaCl, 2.5 mM CaCl2, 10 mM Cysteine, pH 7.5 • MMP9: 50 mM Tris, 10 mM CaCl2), 150 mM NaCl, 0.05% Brij-35 (w/v), pH7.5 • TACE: 25 mM Tris, 2.5 μM ZnCl2, 0.005% Brij-35 (w/v), pH 9.0 […]
(§3) The inhibitory effect of the compounds of the present disclosure on the above three proteases was determined by the above test, and the measured IC50 values were as follows.

TACE(ADAM17) = TACE(ADAM17) (Homo sapiens, UniProt P78536); experiment: Inhibition of recombinant human protease TACE, fluorescence assay; type: biochemical
Procedure: as §1, §2, §3

[2] = system: postoperative intra-abdominal adhesions; settings: for extent (and locations) of intra-abdominal adhesions compared with the model group: rats, single gavage 12 mL/kg 2 hours before operation, 7 days after operation
Procedure: Seventy male SPF SD rats, 220±20 g each, were purchased from Beijing Vital River Experimental Animal Technology Co., Ltd. After 2 weeks of adaptive feeding in the laboratory, the animals were numbered by ear tags and randomized into 7 groups, with […] in each group.
The positive drug was tranexamic acid (TXA).
An amount of the positive drug tranexamic acid (TXA) was weighed and added with the electrolyte solution to prepare 64 mM and 21 mM solutions.
The animals were given a single dose at 12 mL/kg by oral gavage 2 hours before the laparotomy operation. The animals in the sham operation group and the model group were given the solvents.
The animals were fasted but water was given before the operation (>12 hours). The abdomen was locally depilated after inhalation anesthesia and disinfected with iodophor solution. An incision with the size of 3 cm was made in the midline area of the abdomen of the experimental animal using a scalpel, and the cecum was taken out. The serosal layer on each side of the ileocecal region was repeatedly rubbed with sterile gauze until there were needle-like bleeding points on the surface, forming a damaged wound inside and outside of the cecum. The cecum was returned back to the abdominal cavity. The abdominal cavity was closed, sutured layer by layer with surgical sutures, and disinfected. The entire operation should be performed aseptically. The experimental operations were carried out for 4 animals in each group. In the sham operation group, the animal's abdomens were opened only without damaging the cecum.
The animals were dissected and observed 7 days after the operation.
The intestinal adhesions were scored using the Phillips grading method.

[3] = system: postoperative intestinal adhesions; experiment: Abdominal adhesion model by the file method (cecal friction), Phillips grading; type: in vivo, SD rats; settings: rats; gavage 2% solution 12 mL/kg 2 hours before operation + peritoneal irrigation 1% solution 2 mL/animal; 7th day after operation
Excerpt: • 3.1 Experimental animals: The male SPF SD rats (220 g each) were purchased from the Experimental Animal Center of Hangzhou Medical College and passed the inspection of Zhejiang Provincial Experimental Animal Quality Supervision and Inspection Station. […] The solvent used for intragastric administration was compound polyethylene glycol electrolyte solution; the solvent used for irrigation administration was sterile saline solution. • 3.3 Preparation of solvent: One bag of compound polyethylene glycol electrolyte solution (68.56 g) was dissolved in 1 L of pure water, and is further added with 44 g of glucose (containing water) to make the glucose content of 4% (w/v) in the solvent. The prepared solvent was stored at 2-8° C. and used within one week. • 3.4 Preparation of intragastric solution: An amount of test sample was weighed and added with an appropriate amount of sterile ultrapure water to prepare a 20% (w/v) stock solution, then an equivalent amount of NaOH was added to adjust the pH to neutral until completely dissolved (the pH value was measured). […]

Chain of TACE(ADAM17) (P78536 215-824): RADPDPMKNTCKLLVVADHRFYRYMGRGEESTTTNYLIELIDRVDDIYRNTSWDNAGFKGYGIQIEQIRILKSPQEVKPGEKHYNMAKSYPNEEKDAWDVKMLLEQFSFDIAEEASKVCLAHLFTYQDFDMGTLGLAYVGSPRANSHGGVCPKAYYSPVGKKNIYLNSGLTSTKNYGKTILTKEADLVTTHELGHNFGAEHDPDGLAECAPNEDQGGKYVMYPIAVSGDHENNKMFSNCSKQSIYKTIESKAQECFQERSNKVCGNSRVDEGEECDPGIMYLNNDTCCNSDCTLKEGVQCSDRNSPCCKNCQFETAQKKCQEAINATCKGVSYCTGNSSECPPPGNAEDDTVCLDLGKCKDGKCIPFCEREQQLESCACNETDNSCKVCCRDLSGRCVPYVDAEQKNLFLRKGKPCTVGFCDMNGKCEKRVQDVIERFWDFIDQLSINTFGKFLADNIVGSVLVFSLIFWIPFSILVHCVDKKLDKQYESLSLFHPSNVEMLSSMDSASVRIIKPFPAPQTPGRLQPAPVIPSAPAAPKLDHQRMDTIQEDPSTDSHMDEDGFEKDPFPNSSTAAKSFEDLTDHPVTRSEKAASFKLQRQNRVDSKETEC
Chain of MMP9 (P14780 94-707): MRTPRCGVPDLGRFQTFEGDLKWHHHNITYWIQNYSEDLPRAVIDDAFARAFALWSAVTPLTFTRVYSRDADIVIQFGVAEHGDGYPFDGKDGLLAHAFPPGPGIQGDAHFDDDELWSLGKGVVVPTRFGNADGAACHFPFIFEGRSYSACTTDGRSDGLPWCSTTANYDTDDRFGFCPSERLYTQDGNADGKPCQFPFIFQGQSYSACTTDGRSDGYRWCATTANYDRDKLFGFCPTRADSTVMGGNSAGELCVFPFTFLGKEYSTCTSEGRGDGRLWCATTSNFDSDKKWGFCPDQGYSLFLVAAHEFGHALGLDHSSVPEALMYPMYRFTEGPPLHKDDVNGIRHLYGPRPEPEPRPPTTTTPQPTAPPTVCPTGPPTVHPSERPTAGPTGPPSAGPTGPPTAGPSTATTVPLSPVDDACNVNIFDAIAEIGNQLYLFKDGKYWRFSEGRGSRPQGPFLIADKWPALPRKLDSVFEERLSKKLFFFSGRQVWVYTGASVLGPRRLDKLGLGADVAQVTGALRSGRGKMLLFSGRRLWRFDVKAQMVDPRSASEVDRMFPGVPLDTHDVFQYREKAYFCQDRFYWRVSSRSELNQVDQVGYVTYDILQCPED

Structure (SMILES)	IC50 [1] [mM]	IC50 (MMP9; recombinant human MMP9 0.2 μg/mL, substrate 10 μM, room temperature 30 minutes, read-out: IC50 MMP9) [mM]	IC50 (TACE(ADAM17); recombinant human TACE 0.2 μg/mL, substrate 20 μM, room temperature 30 minutes, read-out: IC50 TACE(ADAM17)) [mM]	extent (and locations) of intra-abdominal adhesions compared with the model group ([2]; 21 mM solution)	extent (and locations) of intra-abdominal adhesions compared with the model group ([2]; 64 mM solution)	IC50 (MMP9) [mM]	IC50 (TACE(ADAM17)) [mM]	animals with quantity and extent of intestinal adhesions significantly improved compared with the model group [3]	animal deaths after the operation ([2]; rat, in vivo)
Cl.O=C(O)c1ccc2c(n1)CCNC2 [Preparative example 1, 5,6,7,8-tetrahydro-1,6-naphthyridine-2-carboxylic acid hydrochloride]	13.4	6.56	5.43	reduced	reduced significantly				
Cl.O=P(O)(O)c1ccc2c(n1)CCNC2 [Preparative example 2, (5,6,7,8-tetrahydro-1,6-naphthyridin-2-yl) phosphonic acid hydrochloride]	17.9				improved to a certain extent	~25	7.38	more than 80%	
NC[C@H]1CC[C@H](C(=O)O)CC1 [tranexamic acid, reference compound]				exhibited an alleviating trend	significantly alleviated				one animal died
